# Measured values as given in patent publication US7691874B2, “Neuroprotective properties of dextrorotatory morphinans” (priority 2004, dated 2010).
# Marks after values point to notes of the source that are not given here.
# Columns and labels:
# C57 BL/6 mice [1] = assay: Locomotor activity and locomotor pattern following repeated administration of morphinans or PCP; assay type: in vivo
# C57 BL/6 mice [2] = assay: Conditioned place preference (psychological dependence) following repeated administration of morphinans or PCP; assay type: in vivo; details: 20 or 40 mg/kg i.p. (PCP 2.5 or 5 mg/kg); vs saline
# Protocol: On day 14, the guillotine doors were raised. […] Data were analyzed between 0900 and 1700 hr.
# MPTP-treated mice [3] = assay: Hypokinesia (reduction in locomotor activity) induced by MPTP; assay type: in vivo; details: 12 or 24 mg/kg i.p. 30 min before MPTP (20 mg/kg/day x 7), last three days
# LPS-treated mice [4] = assay: Striatal dopamine and metabolites in LPS-treated mice; assay type: in vivo; details: for Concentration DA in the striatum: 3 weeks after LPS
# Source text: (§1) Control animals received striatal injection with PBS.
# Mice were sacrificed at 3 weeks after LPS treatment.
# LPS-treated mice [5] = assay: Nigral TH-IR in LPS-treated mice; assay type: in vivo; details: 24 mg/kg i.p.
# Source text: FIGS. 8A-8B. […] Magnification=40×.
# as §1
# MA-treated mice [6] = assay: Methamphetamine (MA)-induced hyperthermia; assay type: in vivo; details: 24 mg/kg; MA 7.5 mg/kg i.p. x 4 at 2-h intervals
# Protocol: Rectal temperature was recorded at 40 min after each MA treatment. […] Mice were sacrificed at 3 days after final MA injection.
# FIGS. 10A-10B show effect of morphinans on the methamphetamine (MA)-induced hyperthermia. Mice received i.p. injections of MA (four injections of 7.5 mg/kg each) at 2-h intervals under the ambient temperature of 22.0±0.5° C. Temperatures were recorded at 40 min after each MA treatment (Arrow=MA injection).
# MA-treated mice [7] = assay: Hypokinesia induced by MA; assay type: in vivo; details: 12 and 24 mg/kg; 3 days after final MA
# MA-treated mice [8] = assay: Striatal dopamine and metabolites in MA-treated mice; assay type: in vivo; details: for Concentration DA in the striatum: 3 days after final MA
# Source text: Mice were sacrificed at 3 days after final MA injection.
# cocaine-treated mice [9] = assay: Cocaine-induced hyperlocomotion; assay type: in vivo
# Protocol: FIGS. 34A-34B show effect of morphinans on the cocaine-induced hyperactivity in the mice. Morphinans (15 and 30 mg/kg, i.p.) were administered 30 minutes prior to cocaine (5 and 20 mg/kg, i.p.). Central activity means relatively non-specific locomotor activity in the center of the box. Marginal activity means circling behaviors. All treatments were performed for 7 days.
# FIGS. 35A-35D show effect of dimemorfan (DF) on cocaine-induced hyperactivity in the mice. DF (20 mg/kg, i.p.) was administered 30 minutes prior to cocaine (5 and 20 mg/kg, i.p.). All treatments were performed for 7 days.
# MA-treated mice [10] = assay: MA-induced hyperlocomotion; assay type: in vivo; details: morphinan 20 mg/kg i.p. 30 min before MA 1 mg/kg i.p./day x 7
# Protocol: FIGS. 39A-39D show effect of morphinans on the MA-induced hyperactivity in the mice. Each morphinan (20 mg/kg, i.p.) was administered 30 minutes prior to MA (1 mg/kg, i.p.). All treatments were performed for 7 days.
# MA-treated mice [11] = assay: MA-induced behavioural sensitization; details: morphinan 20 mg/kg i.p., last 3 days of wash-out (Ex. 3.12)
# Protocol: Morphinans (20 mg/kg, i.p.) were administered last 3 days of wash-out period.
# [12] = test system: NMDA receptor associated PCP sites; details: cited from earlier work
# σ1 receptors = σ1 receptors (Homo sapiens, UniProt Q99720); details: cited from earlier work
# Chain of σ1 receptors (Q99720 whole entry): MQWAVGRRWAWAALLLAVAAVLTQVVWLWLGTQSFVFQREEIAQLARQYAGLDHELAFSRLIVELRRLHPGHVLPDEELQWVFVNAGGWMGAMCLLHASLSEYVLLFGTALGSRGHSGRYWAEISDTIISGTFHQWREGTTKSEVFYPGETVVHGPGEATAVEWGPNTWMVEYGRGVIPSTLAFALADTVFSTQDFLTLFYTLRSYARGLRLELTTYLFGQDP
# [13] = test system: kainate or maximal electric shock; details: kainate (24) or maximal electric shock (27); cited from earlier work
# MA-treated mice [14] = assay: Nigral TH-IR in MA-treated mice; details: 24 mg/kg i.p.
# MA-treated mice [15] = assay: MA-induced FRA-IR in the striatum; details: morphinan 20 mg/kg i.p.; MA 1 mg/kg i.p./day x 7
# Protocol: Therefore, brains were removed and used for immunocytochemical analysis at 18 h after the final cocaine/MA treatment. The coronal sections containing striatum were processed for FRA immunocytochemistry. […] The FRA antibody was used at 1:2,000 as the optimal dilution. The FRA-IR in the striatum was calculated using image analysis systems with a polaroid digital microscopic camera (Optimas version 6.2).
# LPS-treated mice [16] = assay: Hypokinesia induced by intrastriatal LPS; details: 12 or 24 mg/kg, twice before bilateral intrastriatal LPS
# Protocol: Male mice were anesthetized with chloral hydrate (200 mg/kg, i.p.) and positioned in a small-animal stereotaxic apparatus. […] LPS (2 μg in a volume of 2 μl of PBS) was injected into both sides of the striatum over a period of 2 min, and the injection needle was kept in place for 2 min after the injection. Control animals received striatal injection with PBS.
# Ten min after the last treatment with each drug, locomotor activity was measured for 30 min. After measuring the locomotor activity (i.e. 40 min after the last drug injection), the ‘absolute turn angular’ was analyzed in a 3-min monitoring period using an automated video-tracking system (Noldus Information Technology, Wagenin, The Netherlands) to examine locomotor patterns. […] Eight test boxes (40×40×30 cm high) were operated simultaneously by an IBM computer. Animals were studied individually during locomotion in each test box, where they were adapted for 10 min before starting the experiment. […] The distance traveled in cm by the animals in horizontal locomotor activity was analyzed (13, 25, 27). Data were collected and analyzed between 0900 and 1700 hr.
# MPTP-treated mice [17] = assay: Striatal dopamine and metabolites (HPLC-EC) in MPTP-treated mice; details: for Concentration DA in the striatum: mean ± S.E.M., 8 animals
# Protocol: (§2) Each morphinan was administered 30 min prior to every injection of MPTP for last three days (from day 4th to day 7th). Animals were sacrificed 24 h after the last MPTP treatment.
# Brains were rapidly removed and cut into 1 mm coronal sections on ice. The striatum was punched using a fine pasteur pipette (3, 21, 22), and stored at −70° C. DA and its metabolites, 3,4-dihydroxyphenylacetic acid (DOPAC) and homovanilic acid (HVA) were measured by HPLC-eletrochemical detection (3, 21, 22). Briefly, the striatum was homogenized in 0.2 M perchloric acid containing 3,4-dihydroxybenzylamine as an internal standard (10 mg wet weight of tissue per ml). The homogenate was centrifuged and a 20-μl aliquot of the supernatant was injected into the HPLC equipped with an ODS-C18 column. The mobile phase was comprised of 26 ml of acetonitrile, 21 ml of tetrahydrofuran and 960 ml of 0.15 M monochloroacetic acid (pH 3.0) containing 50 mg/l of EDTA and 200 mg/l of sodium octyl sulfate. The amount of DA, DOPAC and HVA were determined by comparison of peak height ratio of tissue sample with standards, and were expressed in nanograms per 100 mg of wet weight of tissue.
# Each morphinan was administered 30 min before every injection of MPTP for last three days. Animals were sacrificed at 24 h after the last MPTP injection.
# MPTP-treated mice [18] = assay: Nigral tyrosine hydroxylase-like immunoreactivity in MPTP-treated mice; details: 24 mg/kg i.p.
# Protocol: as §2
# cocaine-treated mice [19] = assay: Cocaine-induced Fos-related antigen-immunoreactivity (FRA-IR) in the striatum; details: cocaine 5 mg/kg; morphinan 20 mg/kg i.p.
# MPTP-treated mice [20] = assay: MPTP model, HM versus L-dopa/carbidopa: locomotor activity; assay type: in vivo; details: HM 24 mg/kg i.p., L-dopa 200 mg/kg p.o., carbidopa 20 mg/kg p.o., 2 weeks before MPTP
# Protocol: FIGS. 20A-20B show effects of carbidopa, L-dopa, carbidopa+L-dopa and HM on the changes in locomotor activity (A) and locomotor pattern (B) induced by MPTP in mice.
# A prescription drug for treating Parkinsonian patients is L-dopa or carbidopa plus L-dopa. Thus, the neuroprotective effects of HM was compared with L-dopa, carbidopa, or carbidopa plus L-dopa. […] Locomotor activity was examined for 60 min after final treatment of MPTP. Mice were sacrificed at 24 h after final MPTP administration. HM (24 mg/kg, i.p.), L-dopa (200 mg/kg, p.o.) with or without carbidopa (20 mg/kg, p.o.) was administered for 2 weeks before first MPTP challenge.
# LPS-treated mice [21] = assay: LPS model, HM versus L-dopa/carbidopa: mortality; assay type: in vivo; details: intrastriatal LPS 2 μg x 4/head; 2 weeks
# Protocol: Mortality was observed by 2 weeks after LPS injection. *P<0.01 vs. Saline+LPS (x^2-test).
# The neuroprotective effect of HM was compared with L-dopa, carbidopa, or carbidopa plus L-dopa in response to dopaminergic damage induced by LPS. Intrastriatal injection of LPS (2 μg×4/head) produced high mortality (ten animals died out of twelve animals in the 2 weeks after LPS administration).
# LPS-treated mice [22] = assay: LPS model, HM versus L-dopa/carbidopa: nigral TH-IR; details: mouse, in vivo
# Source text: FIG. 27 show effects of carbidopa, L-dopa, carbidopa+L-dopa and HM on the nigral tyrosine hydroxylase-like immunoreactivity (TH-IR) of the mice treated with LPS.
# LPS-treated mice [23] = assay: LPS model, HM versus L-dopa/carbidopa: microglia F4/80-like immunoreactivity; assay type: in vivo; details: substantia nigra
# MA-treated mice [24] = assay: MA model, HM versus L-dopa/carbidopa: hyperthermia; assay type: in vivo; details: MA 7.5 mg/kg i.p. x 4
# Protocol: FIGS. 31A-31B show effect of drugs on the MA-induced hyperthermia. Mice received MA injections as 2 hrs' time interval under the ambient temperature of 22.0±0.5° C.
# Experimental paradigm for MA with or without compounds is in FIG. 30. Treatment with MA (7.5 mg/kg, i.p.×four times as two hour time interval) produces hyperthermia (P<0.01).
structure (smiles),measurement,setting,value
"CN1CC[C@]23CCCC[C@H]2[C@H]1Cc1ccc(OCC2CC2)cc13 [CM, 3-cyclopropylmethoxy-17-methylmorphinan]",locomotor pattern (tracings),"C57 BL/6 mice [1]; 40 mg/kg i.p. (PCP 5 mg/kg), FIG. 3",did not produce significant marginal activity
same,marginal activity (circling behaviour; absolute turn angular),"C57 BL/6 mice [1]; 20 or 40 mg/kg i.p./day x 7 (PCP 2.5 or 5 mg/kg), 3-min period, vs saline",did not significantly affect marginal activity
same,locomotor activity (total distance moved),"C57 BL/6 mice [1]; 20 or 40 mg/kg i.p./day x 7 days, 30 min after final treatment, vs saline",comparable to that with saline
same,conditioned place preference (CPP),C57 BL/6 mice [2],almost no CPP effects
same,effect on MPTP-induced reduction in locomotor activity,MPTP-treated mice [3],significantly prevented MPTP-induced reduction in locomotor activity
same,"effect on LPS-induced reductions in striatal DA, DOPAC and HVA",LPS-treated mice [4]; 24 mg/kg pretreatment,significantly protected
same,Concentration DOPAC in the striatum,LPS-treated mice [4]; morphinan 12 (mg/kg) + LPS,70 ± 7 ng/100 mg wet tissue
same,Concentration HVA in the striatum,LPS-treated mice [4]; morphinan 12 (mg/kg) + LPS,83 ± 6 ng/100 mg wet tissue
same,Concentration DA in the striatum,"LPS-treated mice [4]; morphinan 12 (mg/kg) + LPS, mean ± S.E.M., 8 animals",482 ± 54 ng/100 mg wet tissue
same,Concentration DOPAC in the striatum,LPS-treated mice [4]; morphinan 24 (mg/kg) + LPS,86 ± 9^c ng/100 mg wet tissue
same,Concentration HVA in the striatum,LPS-treated mice [4]; morphinan 24 (mg/kg) + LPS,89 ± 7^c ng/100 mg wet tissue
same,Concentration DA in the striatum,LPS-treated mice [4]; morphinan 24 (mg/kg) + LPS,684 ± 56^c ng/100 mg wet tissue
same,effect on LPS-induced reduction in nigral TH-positive cells,LPS-treated mice [5],significantly attenuated the reduction in TH-positive cells
same,effect on MA-induced hyperthermia (rectal temperature),MA-treated mice [6],attenuated by all morphinans used in this study
same,effect on MA-induced reduction in locomotor activity,MA-treated mice [7],significantly prevented MA-induced reduction in locomotor activity
same,"effect on MA-induced reductions in striatal DA, DOPAC and HVA",MA-treated mice [8]; 24 mg/kg pretreatment,significantly protected
same,Concentration DOPAC in the striatum,MA-treated mice [8]; morphinan 12 (mg/kg) + MA,82 ± 10 ng/100 mg wet tissue
same,Concentration HVA in the striatum,MA-treated mice [8]; morphinan 12 (mg/kg) + MA,83 ± 9 ng/100 mg wet tissue
same,Concentration DA in the striatum,"MA-treated mice [8]; morphinan 12 (mg/kg) + MA, mean ± S.E.M., 8 animals",668 ± 81 ng/100 mg wet tissue
same,Concentration DOPAC in the striatum,MA-treated mice [8]; morphinan 24 (mg/kg) + MA,99 ± 10^b ng/100 mg wet tissue
same,Concentration HVA in the striatum,MA-treated mice [8]; morphinan 24 (mg/kg) + MA,94 ± 12^b ng/100 mg wet tissue
same,Concentration DA in the striatum,MA-treated mice [8]; morphinan 24 (mg/kg) + MA,777 ± 66^c ng/100 mg wet tissue
same,effect on locomotor activity induced by low dose of cocaine,"cocaine-treated mice [9]; cocaine 5 mg/kg i.p. x 7 days, morphinan 15 or 30 mg/kg (DF 20 mg/kg) i.p.",consistently attenuated locomotor activity induced by a low dose of cocaine
same,effect on hyperactivity induced by high dose of cocaine,"cocaine-treated mice [9]; cocaine 20 mg/kg i.p. x 7 days, morphinan 15 or 30 mg/kg i.p. 30 min before",not uniform
same,effect on MA-induced hyperlocomotion,MA-treated mice [10],consistently effective in attenuating hyperlocomotion induced by MA
same,effect on MA-induced behavioural sensitization,MA-treated mice [11],significantly reduced
same,affinity for NMDA receptor associated PCP sites,[12],very low affinities
same,affinity for σ1 receptors,σ1 receptors,high affinity ligands
same,anticonvulsant effect,[13],exhibited anticonvulsant effects
same,effect on MA-induced decrease in nigral TH-positive cells,MA-treated mice [14],significantly attenuated the decrease in TH-positive cells
same,effect on MA-induced FRA-IR in the striatum,MA-treated mice [15],apparently attenuated
same,effect on LPS-induced decrease in locomotor activity,LPS-treated mice [16],significantly prevented LPS-induced decrease in locomotor activity
same,"effect on MPTP-induced reductions in striatal DA, DOPAC and HVA",MPTP-treated mice [17]; 24 mg/kg pretreatment,significantly protected
same,Concentration DOPAC in the striatum,MPTP-treated mice [17]; morphinan 12 (mg/kg) + MPTP,58 ± 6 ng/100 mg wet tissue
same,Concentration HVA in the striatum,MPTP-treated mice [17]; morphinan 12 (mg/kg) + MPTP,68 ± 9 ng/100 mg wet tissue
same,Concentration DA in the striatum,MPTP-treated mice [17]; morphinan 12 (mg/kg) + MPTP,489 ± 69 ng/100 mg wet tissue
same,Concentration DOPAC in the striatum,MPTP-treated mice [17]; morphinan 24 (mg/kg) + MPTP,78 ± 10^b ng/100 mg wet tissue
same,Concentration HVA in the striatum,MPTP-treated mice [17]; morphinan 24 (mg/kg) + MPTP,89 ± 7^b ng/100 mg wet tissue
same,Concentration DA in the striatum,MPTP-treated mice [17]; morphinan 24 (mg/kg) + MPTP,587 ± 76^b ng/100 mg wet tissue
same,effect on MPTP-induced decrease in nigral TH-positive cells,MPTP-treated mice [18],significantly attenuated the decrease in TH-positive cells
same,effect on cocaine-induced FRA-IR in the striatum,cocaine-treated mice [19],apparently attenuated
C[C@@](Cc1ccc(O)c(O)c1)(NN)C(=O)O [carbidopa],effect on MPTP-induced decrease in locomotor activity,MPTP-treated mice [20],appeared to increase
same,effect on mortality induced by LPS,LPS-treated mice [21],appears to attenuate mortality induced by LPS
same,effect on LPS-induced loss in nigral TH-IR,LPS-treated mice [22],significantly attenuated
same,effect on LPS-induced increase in F4/80-like immunoreactivity (microglia),LPS-treated mice [23],significantly attenuated
same,effect on MA-induced hyperthermia,MA-treated mice [24],significantly attenenuated
